The values below are quoted from earlier work in patent US12144813B2, “PLK1 inhibitor in combination with anti-angiogenics for treating metastatic cancer” (CARDIFF ONCOLOGY, INC., priority 2022, dated 2024).

Like-named read-outs stand apart in the source and are kept apart here.

In series [1] the test system is 2nd line patients, bev naïve or prior bev in 1st line. As to conditions: prior trials.
Series [2] deals with patients with AML who were treatment naïve yet unsuitable for induction therapy. As to conditions: administered intravenously in combination with LDAC; phase II.
The test system of a further series is AML. As to conditions: combination with LDAC; phase III.
Series [3] relates to patients with advanced/metastatic solid tumors.
Series [4] relates to HT29 human colon adenocarcinoma xenografts. The conditions noted are these: combination with irinotecan.
Series [5] concerns cell lines, both from solid as well as hematologic tumors. The conditions noted are these: large number of cell lines, solid and hematologic tumors.
In series [6] the test system is disseminated model of AML.
The target in the next series is PLK1 (Homo sapiens, UniProt P53350). The conditions noted are these: panel of 296 kinases, including other PLK members.
A further series deals with xenograft tumor. As to conditions: well tolerated doses in mice after oral administration.

Sequence of PLK1 (P53350 whole entry): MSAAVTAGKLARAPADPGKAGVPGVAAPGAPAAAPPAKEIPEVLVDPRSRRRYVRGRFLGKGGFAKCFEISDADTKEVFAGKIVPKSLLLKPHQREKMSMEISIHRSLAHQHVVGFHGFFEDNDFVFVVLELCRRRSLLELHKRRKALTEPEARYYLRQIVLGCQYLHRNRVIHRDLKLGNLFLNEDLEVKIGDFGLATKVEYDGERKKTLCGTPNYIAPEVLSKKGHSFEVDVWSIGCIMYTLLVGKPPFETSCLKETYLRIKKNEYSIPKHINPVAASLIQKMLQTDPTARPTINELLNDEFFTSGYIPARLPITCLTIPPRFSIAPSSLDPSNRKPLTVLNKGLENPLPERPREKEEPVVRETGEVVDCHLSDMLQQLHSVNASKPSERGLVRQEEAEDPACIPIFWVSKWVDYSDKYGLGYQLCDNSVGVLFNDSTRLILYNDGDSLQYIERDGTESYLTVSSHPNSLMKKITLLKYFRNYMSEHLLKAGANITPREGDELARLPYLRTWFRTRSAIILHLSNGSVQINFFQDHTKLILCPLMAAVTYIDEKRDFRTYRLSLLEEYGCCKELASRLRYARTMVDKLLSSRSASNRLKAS

As for “Bevacizumab: anti-angiogenics / angiogenesis inhibitor, also referred to herein as bev”, in series [1] (bev naïve patients), the mOS was 13.9 months and the mPFS is reported as 6.9 months. In series [1] (patients with prior bev), the mOS is listed as 12.5 months and the mPFS is 6.7 months.

Take `CC[C@@H]1C(=O)N(C)c2cnc(Nc3ccc(C(=O)N[C@H]4CC[C@H](N5CCN(CC6CC6)CC5)CC4)cc3OC)nc2N1C(C)C` [volasertib (BI6727)]: the “OS compared with LDAC alone” value in series [2] was “significant increase in OS”. In the series with AML, the “Benefit of the combination” value is listed as “no benefit” and the “Risk of severe infections” value was “increased risk of severe infections”.

With `CN1CCN(c2ccc(OC(F)(F)F)c(Nc3ncc4c(n3)-c3c(c(C(N)=O)nn3CCO)CC4)c2)CC1` [Onvansertib, 1-(2-hydroxyethyl)-8-{[5-(4-methylpiperazin-1-yl)-2-(trifluoromethoxy)phenyl]amino}-4,5-dihydro-1H-pyrazolo[4,3-h]quinazoline-3-carboxamide], the Primary dose-limiting toxicities entry in series [3] (phase I, patients with advanced/metastatic solid tumors) was “neutropenia and thrombocytopenia”. The “Recovery from hematologic toxicities” value in series [3] (reversible toxicities) is given as ≤ 3 weeks. Further, in series [4], the “Tumor regression compared to each agent alone” value is “enhanced tumor regression”. In [5], the “Potency in proliferation assays” value is “low nanomolar activity”. In addition, in the series with AML cell lines, the “Inhibition of cell proliferation” value is “nanomolar concentrations”. Moreover, the Cell-cycle effect result with cancer cell lines is listed as “mitotic cell-cycle arrest followed by apoptosis”. The Survival of animals result in [6] (disseminated model of AML, combination therapy with cytarabine) is on record as “prolonged survival”. Besides, in [6] (disseminated models of AML, with cytarabine), the “Effect on cytarabine antitumor activity” value was “significantly increased”. Also, on PLK1, the “Specificity for PLK1” value is listed as “high specificity”. Besides, the Xenograft tumor growth entry in the series with xenograft tumor is “inhibits xenograft tumor growth”.
